{"source": "patent US11123362B2", "about": "“Compositions and methods to affect skin irritation” (ALUMEND, LLC, priority 2015, dated 2021)", "key": {"[1]": {"system": "IL-1α secretion, human epidermal equivalents (EPI-200)", "test": "IL-1α levels 24 hr post-exposure, retinoids, ELISA (Example 2)", "type": "cell-based", "conditions": "5% SDS, Positive Control", "procedure": "Retinoids were dissolved in one of two vehicles: […] […] A Bio-Tek microplate reader and KC4 software were used for sample analysis."}, "[2]": {"system": "IL-1α secretion, human epidermal equivalents (EPI-200)", "test": "IL-1α secretion upon SDS exposure, ELISA (Example 1)", "type": "cell-based", "conditions": "for IL-1α secretion, Avg: media at 24 hours", "procedure": "(§1) IL-1α secretion was analyzed using the Human IL-1α ELISA Duo Set (R&D Systems, cat# DY200, Lot 1353857). A Bio-Tek microplate reader and KC4 software were used for sample analysis."}, "[3]": {"system": "IL-1α secretion, human epidermal equivalents (EPI-200)", "test": "IL-1α secretion upon chymotrypsin exposure (Example 5, diaper rash irritation)", "type": "cell-based", "procedure": "(§2) Modified chitosan (1%) alone was also included.\nas §1\n(§3) The method is described in Example 1. Test articles included Chymotrypsin (0.005, 0.01 and 0.02%), with and without modified chitosan (1%). Chymotrypsin is the major fecal irritant enzyme that initiates diaper rash."}, "[4]": {"system": "three-dimensional human epidermal equivalents (EPI-200)", "test": "In Vitro Skin Irritation Test, MTT tissue viability upon SDS exposure (Example 1)", "conditions": "for mean of viability [%]: 60 minute exposure, MTT after 42 hr", "procedure": "An In Vitro Skin Irritation Test was performed according to OCED guidelines. Irritant materials are identified by their ability to decrease cell viability below a defined threshold level of 50%. Moreover, if the cytotoxic effect is absent or weak, a quantifiable amount of inflammatory mediators (e.g. IL-1α) is released by the epidermis and may be used in a tiered approach to increase the sensitivity of the test.\nTest materials (30 μl) were topically applied onto three-dimensional human epidermal equivalents (EPI-200 from MatTek, Ashland, Mass.), n=3 tissues per treatment group. Test materials included a positive control irritant (5% sodium dodecyl sulfate, SDS), and a negative control (Phosphate Buffered Saline, PBS), and aqueous SDS solutions of 0.2, 0.4 and 0.6%, with or without the addition of modified chitosan (1%). Modified chitosan (1%) alone was also included.\nAfter a 60 minute exposure, the tissues were rinsed with PBS and were transferred to fresh medium. After 24 hours, media was collected for IL-1α analysis and tissues were transferred to fresh media for an additional 18 hr to allow the toxic effect of irritant chemicals to develop. After the 42 hr post-exposure equilibration, media was again collected and tissue viability was determined using an MTT assay."}, "[5]": {"system": "three-dimensional human epidermal equivalents (EPI-200)", "test": "In Vitro Skin Irritation Test, MTT tissue viability, retinoids (Example 2)", "type": "cell-based", "conditions": "positive control irritant (5% SDS)", "procedure": "Retinoids were dissolved in one of two vehicles: V1 (50% ethanol, 20% glycerin, 0.1% BHT, in PBS) or V2 (50% ethanol, 0.1% BHT, in PBS)."}, "[6]": {"system": "three-dimensional human epidermal equivalents (EPI-200)", "test": "Cell death upon chymotrypsin exposure (Example 5)", "type": "cell-based", "conditions": "chymotrypsin 0.005-0.02%, one hour exposure", "from_the_text": "as §2, §3"}, "[7]": {"system": "Epidermal equivalents (EPI-200)", "test": "Visual observation of tissues after four days of daily retinol treatment (Example 3)", "type": "cell-based", "conditions": "1% retinol in vehicle, daily for four days", "procedure": "Epidermal equivalents (EPI-200 from MatTek, Ashland, Mass.) were topically treated daily, for four days, with 30 μl of each test article, n=3 tissues per treatment group. Test articles were removed from the apical surface of the tissue daily by washing with PBS prior to reapplication of test article. Tissues were fed daily with 0.9 mL EPI-100-NMM. Tissues remained untreated, or treated with a vehicle (45% ethanol, 0.1% BHT, in PBS), without and with increasing concentrations of retinol (0.01-1%), with or without the addition of the modified chitosan (1%)."}, "[8]": {"system": "IL-1α secretion, epidermal equivalents (EPI-200)", "test": "IL-1α levels at 96 hr, daily retinol treatment, ELISA (Example 4)", "type": "cell-based, human", "procedure": "Epidermal equivalents (EPI-200 from MatTek, Ashland, Mass.) were topically treated daily, for four days, with 30 μl of each test article, n=3 tissues per treatment group. n=3 tissues were left untreated. Test articles were removed from the apical surface of the tissue daily by washing with PBS prior to reapplication of test article. […] Media was collected at 96 hour post treatment and IL-1α concentration was analyzed using the Human IL-1α ELISA Duo Set (R&D Systems, cat# DY200, Lot 1353857). A Bio-Tek microplate reader and KC4 software were used for sample analysis."}, "[9]": {"conditions": "Untreated + Chymotrypsin (0.005%)"}, "[10]": {"conditions": "Untreated + Chymotrypsin (0.01%)"}, "[11]": {"conditions": "Untreated + Chymotrypsin (0.02%)"}}, "data": [{"molecule": "CCCCCCCCCCCCOS(=O)(=O)[O-].[Na+]", "note": "[SDS, sodium dodecyl sulfate]", "values": [{"measurement": "IL-1α levels 24 hr post-exposure, AVG", "setting": "[1]", "result": ">524.6"}, {"measurement": "IL-1α secretion, Avg", "setting": "[2]; 0.2% SDS", "result": 151.98}, {"measurement": "IL-1α secretion, Avg", "setting": "[2]; 0.4% SDS", "result": 334.95}, {"measurement": "IL-1α secretion, Avg", "setting": "[2]; 0.6% SDS", "result": 524.61}, {"measurement": "IL-1α secretion, Avg", "setting": "[2]; PC (5% SDS)", "result": 425.23}, {"measurement": "IL-1α secretion", "setting": "[2]; SDS exposure 0.2-0.6%", "result": "dose-dependent increase in IL-1α secretion"}, {"measurement": "IL-1α secretion, AVG", "setting": "[3]; Positive Control (PC, 5% SDS)", "result": 394.114}, {"measurement": "IL-1α secretion, tissue 1", "setting": "[3]; Positive Control (PC, 5% SDS)", "result": 459.595}, {"measurement": "IL-1α secretion, tissue 2", "setting": "[3]; Positive Control (PC, 5% SDS)", "result": 384.839}, {"measurement": "IL-1α secretion, tissue 3", "setting": "[3]; Positive Control (PC, 5% SDS)", "result": 337.908}, {"measurement": "mean of viability [%]", "setting": "[4]; 0.2% SDS", "result": 110.0, "unit": "%"}, {"measurement": "mean of viability [%]", "setting": "[4]; 0.4% SDS", "result": 106.3, "unit": "%"}, {"measurement": "tissues dead", "setting": "[4]; 0.6% SDS", "result": "~90", "unit": "%"}, {"measurement": "mean of viability [%]", "setting": "[4]; 0.6% SDS", "result": 13.8, "unit": "%"}, {"measurement": "mean of viability [%]", "setting": "[4]; 5% SDS (PC)", "result": 11.1, "unit": "%"}, {"measurement": "viability", "setting": "[5]", "result": "less than 10%"}]}, {"molecule": "Chymotrypsin", "values": [{"measurement": "cell death", "setting": "[6]", "result": "did not induce cell death"}, {"measurement": "IL-1α secretion, AVG", "setting": "[3]; [9]", "result": 65.279}, {"measurement": "IL-1α secretion, tissue 1", "setting": "[3]; [9]", "result": 47.295}, {"measurement": "IL-1α secretion, tissue 2", "setting": "[3]; [9]", "result": 74.241}, {"measurement": "IL-1α secretion, tissue 3", "setting": "[3]; [9]", "result": 74.302}, {"measurement": "IL-1α secretion, AVG", "setting": "[3]; [10]", "result": 66.405}, {"measurement": "IL-1α secretion, tissue 1", "setting": "[3]; [10]", "result": 58.421}, {"measurement": "IL-1α secretion, tissue 2", "setting": "[3]; [10]", "result": 53.293}, {"measurement": "IL-1α secretion, tissue 3", "setting": "[3]; [10]", "result": 87.502}, {"measurement": "IL-1α secretion, AVG", "setting": "[3]; [11]", "result": 166.821}, {"measurement": "IL-1α secretion, tissue 1", "setting": "[3]; [11]", "result": 67.307}, {"measurement": "IL-1α secretion, tissue 2", "setting": "[3]; [11]", "result": 353.378}, {"measurement": "IL-1α secretion, tissue 3", "setting": "[3]; [11]", "result": 79.779}, {"measurement": "IL-1α secretion", "setting": "[3]; chymotrypsin exposure 0.005-0.02%", "result": "dose-dependent increase in IL-1α secretion"}]}, {"molecule": "CC1=C(/C=C/C(C)=C/C=C/C(C)=C/CO)C(C)(C)CCC1", "note": "[retinol]", "values": [{"measurement": "visual observations at 96 hour post treatment", "setting": "[7]", "result": "partially disintegrated"}, {"measurement": "IL-1α levels at 96 hr post-exposure, AVG", "setting": "[8]; Vehicle + retinol (0.01%)", "result": 104.90}, {"measurement": "IL-1α levels at 96 hr post-exposure, Tissue 1", "setting": "[8]; Vehicle + retinol (0.01%)", "result": 124.24}, {"measurement": "IL-1α levels at 96 hr post-exposure, Tissue 2", "setting": "[8]; Vehicle + retinol (0.01%)", "result": 108.54}, {"measurement": "IL-1α levels at 96 hr post-exposure, Tissue 3", "setting": "[8]; Vehicle + retinol (0.01%)", "result": 81.94}, {"measurement": "IL-1α levels at 96 hr post-exposure, AVG", "setting": "[8]; Vehicle + retinol (0.1%)", "result": 240.68}, {"measurement": "IL-1α levels at 96 hr post-exposure, Tissue 1", "setting": "[8]; Vehicle + retinol (0.1%)", "result": 351.17}, {"measurement": "IL-1α levels at 96 hr post-exposure, Tissue 2", "setting": "[8]; Vehicle + retinol (0.1%)", "result": 108.86}, {"measurement": "IL-1α levels at 96 hr post-exposure, Tissue 3", "setting": "[8]; Vehicle + retinol (0.1%)", "result": 262.00}, {"measurement": "IL-1α levels at 96 hr post-exposure, AVG", "setting": "[8]; Vehicle + retinol (1%)", "result": 1020.46}, {"measurement": "IL-1α levels at 96 hr post-exposure, Tissue 1", "setting": "[8]; Vehicle + retinol (1%)", "result": 885.52}, {"measurement": "IL-1α levels at 96 hr post-exposure, Tissue 2", "setting": "[8]; Vehicle + retinol (1%)", "result": 1097.75}, {"measurement": "IL-1α levels at 96 hr post-exposure, Tissue 3", "setting": "[8]; Vehicle + retinol (1%)", "result": 1078.11}, {"measurement": "skin irritation by IL-1α secretion biomarker", "setting": "[8]; retinol 0.01-1% in vehicle", "result": "induces skin irritation in a dose-responsive manner"}]}]}
